Measurements published in the NIST ThermoML archive (doi:10.1016/j.jct.2006.10.017).
± gives the expanded uncertainty stated by the source.

Legend:
[1] = refractive index (Na D-line) (dimensionless); settings: 101.33 kPa, Liquid
[2] = 101 kPa, Liquid
[3] = xn = mol fraction of the nth substance listed; settings: 101 kPa, Liquid
[4] = refractive index (Na D-line) (dimensionless); xn = mol fraction of the nth substance listed; settings: 101 kPa, Liquid

CCCCCCn1cc[n+](C)c1.F[P-](F)(F)(F)(F)F [1-hexyl-3-methylimidazolium hexafluorophosphate]
Settings | mass density, 293.15 K [kg/m3] | mass density, 298.15 K [kg/m3] | mass density, 303.15 K [kg/m3] | refractive index, 293.15 K | refractive index, 298.15 K | refractive index, 303.15 K | speed of sound, 293.15 K [m/s] | speed of sound, 298.15 K [m/s] | speed of sound, 303.15 K [m/s]
[1] | – | – | – | 1.41923 ± 0.0013 | 1.41787 ± 0.0013 | 1.41643 ± 0.0013 | – | – | –
[2] | 1297.9 ± 2.5 | 1293.7 ± 2.5 | 1289.6 ± 2.5 | – | – | – | 1438 ± 12 | 1424 ± 11 | 1411 ± 11

CCO [ethanol]
Settings | mass density, 293.15 K [kg/m3] | mass density, 298.15 K [kg/m3] | mass density, 303.15 K [kg/m3] | refractive index, 293.15 K | refractive index, 298.15 K | refractive index, 303.15 K | speed of sound, 293.15 K [m/s] | speed of sound, 298.15 K [m/s] | speed of sound, 303.15 K [m/s]
[1] | – | – | – | 1.36138 ± 0.0013 | 1.35929 ± 0.0013 | 1.35725 ± 0.0013 | – | – | –
[2] | 789.3 ± 0.9 | 785.1 ± 0.9 | 780.7 ± 0.9 | – | – | – | 1160 ± 10 | 1143 ± 10 | 1127 ± 9

COS(=O)(=O)[O-].Cn1cc[n+](C)c1 [1,3-dimethylimidazolium methylsulfate]
Settings | mass density, 293.15 K [kg/m3] | mass density, 298.15 K [kg/m3] | mass density, 303.15 K [kg/m3] | refractive index, 293.15 K | refractive index, 298.15 K | refractive index, 303.15 K | speed of sound, 293.15 K [m/s] | speed of sound, 298.15 K [m/s] | speed of sound, 303.15 K [m/s]
[1] | – | – | – | 1.48392 ± 0.0013 | 1.4827 ± 0.0013 | 1.48129 ± 0.0013 | – | – | –
[2] | 1330.9 ± 2.7 | 1327.2 ± 2.7 | 1323.7 ± 2.7 | – | – | – | 1826 ± 14 | 1813 ± 14 | 1801 ± 14

CCCCCCCC[n+]1ccn(C)c1.F[P-](F)(F)(F)(F)F [1-octyl-3-methylimidazolium hexafluorophosphate]
Settings | mass density, 293.15 K [kg/m3] | mass density, 298.15 K [kg/m3] | mass density, 303.15 K [kg/m3] | refractive index, 293.15 K | refractive index, 298.15 K | refractive index, 303.15 K | speed of sound, 293.15 K [m/s] | speed of sound, 298.15 K [m/s] | speed of sound, 303.15 K [m/s]
[1] | – | – | – | 1.4244 ± 0.0013 | 1.42302 ± 0.0013 | 1.42165 ± 0.0013 | – | – | –
[2] | 1239.6 ± 2.2 | 1235.7 ± 2.2 | 1231.9 ± 2.2 | – | – | – | 1424 ± 11 | 1408 ± 11 | 1393 ± 11

CCCCn1cc[n+](C)c1.F[P-](F)(F)(F)(F)F [1-butyl-3-methylimidazolium hexafluorophosphate]
Settings | mass density, 293.15 K [kg/m3] | mass density, 298.15 K [kg/m3] | mass density, 303.15 K [kg/m3] | refractive index, 293.15 K | refractive index, 298.15 K | refractive index, 303.15 K | speed of sound, 293.15 K [m/s] | speed of sound, 298.15 K [m/s] | speed of sound, 303.15 K [m/s]
[1] | – | – | – | 1.41069 ± 0.0013 | 1.40937 ± 0.0013 | 1.40808 ± 0.0013 | – | – | –
[2] | 1371.6 ± 2.9 | 1367.3 ± 2.9 | 1363 ± 2.9 | – | – | – | 1455 ± 12 | 1443 ± 12 | 1431 ± 12

CCCCn1cc[n+](C)c1.COS(=O)(=O)[O-] [1-butyl-3-methylimidazolium methyl sulfate] + CCO
Settings | mass density, 293.15 K [kg/m3] | mass density, 298.15 K [kg/m3] | mass density, 303.15 K [kg/m3] | refractive index, 293.15 K | refractive index, 298.15 K | refractive index, 303.15 K | speed of sound, 293.15 K [m/s] | speed of sound, 298.15 K [m/s] | speed of sound, 303.15 K [m/s]
[3], x1 = 0.0501 | 860.2 ± 0.7 | 856.4 ± 0.8 | 852.2 ± 0.8 | – | – | – | 1218 ± 10 | 1203 ± 10 | 1189 ± 10
[3], x1 = 0.1015 | 916.9 ± 0.6 | 913 ± 0.6 | 909 ± 0.6 | – | – | – | 1277 ± 10 | 1262 ± 10 | 1248 ± 10
[3], x1 = 0.1961 | 993.7 ± 0.4 | 990 ± 0.4 | 986.2 ± 0.4 | – | – | – | 1358 ± 11 | 1343 ± 11 | 1324 ± 11
[3], x1 = 0.299 | 1052.2 ± 0.5 | 1048.6 ± 0.5 | 1044.9 ± 0.5 | – | – | – | 1425 ± 11 | 1412 ± 11 | 1392 ± 11
[3], x1 = 0.3914 | 1091.3 ± 0.7 | 1087.8 ± 0.7 | 1084.1 ± 0.7 | – | – | – | 1479 ± 12 | 1466 ± 12 | 1446 ± 11
[3], x1 = 0.5025 | 1127.3 ± 1 | 1123.7 ± 0.9 | 1120.1 ± 0.9 | – | – | – | 1538 ± 12 | 1525 ± 12 | 1508 ± 12
[3], x1 = 0.6073 | 1153.5 ± 1.2 | 1150 ± 1.2 | 1146.5 ± 1.1 | – | – | – | 1576 ± 12 | 1563 ± 12 | 1553 ± 12
[3], x1 = 0.6982 | 1172 ± 1.4 | 1168.5 ± 1.4 | 1165 ± 1.3 | – | – | – | 1598 ± 12 | 1584 ± 12 | 1574 ± 12
[3], x1 = 0.8002 | 1189.2 ± 1.6 | 1185.6 ± 1.6 | 1182.2 ± 1.6 | – | – | – | 1626 ± 13 | 1612 ± 13 | 1602 ± 13
[3], x1 = 0.8992 | 1203.1 ± 1.8 | 1199.7 ± 1.8 | 1196.3 ± 1.8 | – | – | – | 1650 ± 13 | 1636 ± 13 | 1626 ± 13
[3], x1 = 0.9498 | 1209.5 ± 2 | 1206.1 ± 2 | 1202.7 ± 1.9 | – | – | – | 1659 ± 13 | 1645 ± 13 | 1633 ± 13
[3], x1 = 1 | 1215.6 ± 2.1 | 1212.2 ± 2.1 | 1208.8 ± 2.1 | – | – | – | 1671 ± 13 | 1658 ± 13 | 1645 ± 13
[4], x1 = 0.0501 | – | – | – | 1.38149 ± 0.0013 | 1.3797 ± 0.0013 | 1.37885 ± 0.0014 | – | – | –
[4], x1 = 0.1015 | – | – | – | 1.39827 ± 0.0013 | 1.39667 ± 0.0013 | 1.39541 ± 0.0014 | – | – | –
[4], x1 = 0.1961 | – | – | – | 1.42043 ± 0.0013 | 1.41884 ± 0.0013 | 1.41656 ± 0.0015 | – | – | –
[4], x1 = 0.299 | – | – | – | 1.43625 ± 0.0013 | 1.43478 ± 0.0013 | 1.43335 ± 0.0014 | – | – | –
[4], x1 = 0.3914 | – | – | – | 1.44713 ± 0.0013 | 1.4456 ± 0.0013 | 1.44408 ± 0.0013 | – | – | –
[4], x1 = 0.5025 | – | – | – | 1.45714 ± 0.0013 | 1.45586 ± 0.0013 | 1.45509 ± 0.0013 | – | – | –
[4], x1 = 0.6073 | – | – | – | 1.46429 ± 0.0013 | 1.46284 ± 0.0013 | 1.46136 ± 0.0013 | – | – | –
[4], x1 = 0.6982 | – | – | – | 1.46926 ± 0.0013 | 1.4678 ± 0.0013 | 1.46639 ± 0.0013 | – | – | –
[4], x1 = 0.8002 | – | – | – | 1.47391 ± 0.0013 | 1.47249 ± 0.0013 | 1.47111 ± 0.0013 | – | – | –
[4], x1 = 0.8992 | – | – | – | 1.47757 ± 0.0013 | 1.47623 ± 0.0013 | 1.47485 ± 0.0013 | – | – | –
[4], x1 = 0.9498 | – | – | – | 1.47901 ± 0.0013 | 1.47766 ± 0.0013 | 1.47622 ± 0.0013 | – | – | –
[4], x1 = 1 | – | – | – | 1.48077 ± 0.0013 | 1.47942 ± 0.0013 | 1.47806 ± 0.0013 | – | – | –

CCCCn1cc[n+](C)c1.COS(=O)(=O)[O-] [1-butyl-3-methylimidazolium methyl sulfate]
Settings | mass density, 293.15 K [kg/m3] | mass density, 298.15 K [kg/m3] | mass density, 303.15 K [kg/m3] | refractive index, 293.15 K | refractive index, 298.15 K | refractive index, 303.15 K | speed of sound, 293.15 K [m/s] | speed of sound, 298.15 K [m/s] | speed of sound, 303.15 K [m/s]
[1] | – | – | – | 1.48077 ± 0.0013 | 1.47942 ± 0.0013 | 1.47806 ± 0.0013 | – | – | –
[2] | 1215.6 ± 2.1 | 1212.2 ± 2.1 | 1208.8 ± 2.1 | – | – | – | 1671 ± 13 | 1658 ± 13 | 1645 ± 13

CCO [ethanol] + CCCCn1cc[n+](C)c1.F[P-](F)(F)(F)(F)F
x2 = 0
Settings | mass density, 293.15 K [kg/m3] | mass density, 298.15 K [kg/m3] | mass density, 303.15 K [kg/m3] | refractive index, 293.15 K | refractive index, 298.15 K | refractive index, 303.15 K | speed of sound, 293.15 K [m/s] | speed of sound, 298.15 K [m/s] | speed of sound, 303.15 K [m/s]
[3] | 789.3 ± 0.9 | 785.1 ± 0.9 | 780.7 ± 0.9 | – | – | – | 1160 ± 10 | 1143 ± 10 | 1127 ± 9
[4] | – | – | – | 1.36138 ± 0.0013 | 1.35929 ± 0.0013 | 1.35725 ± 0.0013 | – | – | –
